This note sets out measurements from EPA's ToxValDB 9.5 (doi:10.2903/j.efsa.2015.3999).

A word on the NOAEL: it is the highest tested level that showed no adverse finding.

Several values for one entry are separate records, joined by “and”; a condition that tells them apart may be missing. Equal entries are not always repeated.

One data set relates to Apis mellifera. The note with it: acute, mortality.
A further data set concerns Folsomia candida. The note with it: chronic/long-term.
A further data set deals with Anas platyrhynchos. The note with it: reproductive.
Another data set concerns Canidae. The note with it: subchronic; duration: 90 days; oral; Dog Other; organ weight.
The test system of the next data set is Rattus norvegicus. To be noted: for LD50: acute, mortality.
A further data set concerns Daphnia magna. To be noted: chronic/long-term; duration: 21 days; reproduction.

Regarding `COCC(=O)N(c1c(C)cccc1C)[C@H](C)C(=O)OC` [Metalaxyl-M], the LD50 with Apis mellifera (dermal) is over 100 µg/piece; with Apis mellifera (oral, unspecified), over 97.3 µg/piece; with Colinus virginianus (acute, oral, mortality), 1420 mg/kg-day and 981 mg/kg-day and 1180 mg/kg-day; in the data set with Rattus norvegicus (F) it was 375 mg/kg-day; in the data set on Rattus norvegicus (M) it was 953 mg/kg-day. Further, the LC50 was over 5620 mg/kg in the data set on Colinus virginianus (acute, oral, diet, mortality); over 100 µg/mL in the data set with Oncorhynchus mykiss (acute, duration: 96 hours, mortality); 830 mg/kg with Tagia sp. (acute, duration: 14 days, mortality). Besides, the NOEL was 8.4 mg/kg-day in the data set on Colinus virginianus (reproduction developmental) and 117 mg/kg-day in the data set on Anas platyrhynchos. In addition, the NOEC stood at 125 mg/kg with Folsomia candida; 50 mg/L in the data set on Oncorhynchus mykiss (chronic/long-term, duration: 28 days, growth); 35.6 mg/kg with Tagia sp. (chronic/long-term, duration: 8 weeks); 25 mg/L in the data set on Daphnia magna. Further, the no-observed-adverse-effect level (NOAEL) was 8 mg/kg-day with Canidae and 50 mg/kg-day in the data set on Rattus norvegicus (reproduction developmental, body weight).
